Measured values taken from patent US20100087516A1, “ANTIBACTERIAL MACROLACTIN A THAT BACILLUS POLYFERMENTICUS KJS-2 PRODUCED IN” (priority 2007, published 2010).
In brackets after ≈: the same amount, converted by molar mass. Read-outs that look alike come from different tables or passages of the source.

Key:
[1] = test system: 11 VRE strains, clinically isolated; test: Minimal inhibitory concentration (MIC>90) in MH II medium; assay type: cell-based, vancomycin-resistant enterococci; conditions: for MIC: Enterococcus, VRE
Procedure: (§1) The MIC (minimal inhibitory concentration) against VRE and MRSA was measured to test antibiotic activity of Macrolactin A produced by Bacillus polyfermenticus KJS-2, which is the strain of the present invention, against the two strains. The strains used for the experiment were 11 VRE strains and 13 MRSA strains, which were clinically isolated. Each strain used for the experiment was cultured in MH II medium at 200 rpm for 6 hours at 37° C., the absorbance of the medium measured at OD600nm using a UV detector, and then 1 ml aliquot of the medium was spread over MH II agar medium and incubated for 16 hours at 37° C. The number of colonies formed on the agar medium after 16 hours of incubation was counted. Each strain used for experiment was cultured in MH II medium at 200 rpm for 6 hours at 37° C., and the absorbance of the medium was measured at OD600nm using a UV detector. The number of cells were calculated based on the ratio of the number of colonies to the absorbance of the medium, and measured by the above process. Each culture medium was diluted to the final cell concentration of 0.25*10^7 cfu/ml and Macrolactin A was dissolved in the solvent DMSO, while ampicillin, teycoplanin, vancomycin and methillin were dissolved in water. To measure the MIC of Macrolactin A or of the four antibiotics, the mixture of the materials listed in Table 5 and Macrolactin A or the mixture of the materials listed in Table 6 and each of the four antibiotics, respectively in a 500 μl eppendorff tub, was incubated at 200 rpm for 16 hours at 37° C., and then absorbance was measured by a UV/Visible Light detector at 600 nm using a Fluorescence Multi-Detection Reader.

[2] = test system: 13 MRSA strains, clinically isolated; test: as above; assay type: cell-based, methicillin-resistant Staphylococcus aureus; conditions: for MIC: Staphylococcus aureus, MRSA
Procedure: as §1

[3] = test system: vancomycin-resistant enterococci (VRE); conditions: cited from earlier work
[4] = test system: methicillin-resistant Staphylococcus aureu (MRSA); conditions: cited from earlier work
Burkholderia cepacia = conditions: cited from earlier work
VRE5 = test: Bioassay at a gradient of concentration on TSB agar medium; assay type: cell-based, vancomycin-resistant enterococci; conditions: solution 5 mg/ml in H2O

## CC1(C)S[C@@H]2[C@H](NC(=O)[C@H](N)c3ccccc3)C(=O)N2[C@H]1C(=O)O [Ampicillin]
[1]; Average of the 11 VRE strains, read-out: average MIC>90
  MIC: 273 µg/mL (≈ 781 µM)
[1]; VRE1, read-out: MIC>90
  MIC: 250 µg/mL (≈ 715 µM)
[1]; VRE2, read-out: MIC>90
  MIC: 250 µg/mL (≈ 715 µM)
[1]; VRE3, read-out: MIC>90
  MIC: 250 µg/mL (≈ 715 µM)
[1]; VRE4, read-out: MIC>90
  MIC: 250 µg/mL (≈ 715 µM)
[1]; VRE5, read-out: MIC>90
  MIC: 250 µg/mL (≈ 715 µM)
[1]; VRE6, read-out: MIC>90
  MIC: 250 µg/mL (≈ 715 µM)
[1]; VRE7, read-out: MIC>90
  MIC: 250 µg/mL (≈ 715 µM)
[1]; VRE9, read-out: MIC>90
  MIC: 250 µg/mL (≈ 715 µM)
[1]; VRE10, read-out: MIC>90
  MIC: 250 µg/mL (≈ 715 µM)
[1]; VRE914, read-out: MIC>90
  MIC: 250 µg/mL (≈ 715 µM)
[1]; VRE915, read-out: MIC>90
  MIC: 500 µg/mL (≈ 1430 µM)
[2]; Average of the 13 MRSA strains, read-out: average MIC>90
  MIC: 212 µg/mL (≈ 605 µM)
[2]; MRSA1, read-out: MIC>90
  MIC: 250 µg/mL (≈ 715 µM)
[2]; MRSA2, read-out: MIC>90
  MIC: 250 µg/mL (≈ 715 µM)
[2]; MRSA3, read-out: MIC>90
  MIC: 250 µg/mL (≈ 715 µM)
[2]; MRSA4, read-out: MIC>90
  MIC: 250 µg/mL (≈ 715 µM)
[2]; MRSA5, read-out: MIC>90
  MIC: 250 µg/mL (≈ 715 µM)
[2]; MRSA6, read-out: MIC>90
  MIC: 250 µg/mL (≈ 715 µM)
[2]; MRSA7, read-out: MIC>90
  MIC: 250 µg/mL (≈ 715 µM)
[2]; MRSA8*, read-out: MIC>90
  MIC: 125 µg/mL (≈ 358 µM)
[2]; MRSA8, read-out: MIC>90
  MIC: 125 µg/mL (≈ 358 µM)
[2]; MRSA9, read-out: MIC>90
  MIC: 125 µg/mL (≈ 358 µM)
[2]; MRSA10, read-out: MIC>90
  MIC: 250 µg/mL (≈ 715 µM)
[2]; MRSA11*, read-out: MIC>90
  MIC: 250 µg/mL (≈ 715 µM)
[2]; MRSA11, read-out: MIC>90
  MIC: 125 µg/mL (≈ 358 µM)

## CC1CCC/C=C/C=C/C(O)CC(O)C/C=C\C=C\C(OC(=O)CC(=O)O)C/C=C/C=C\C(=O)O1 (stereo not shown) [Malonyl-macrolactin A (MMA), Malonyl-macrolactin A]
[3]
  antibiotic activity against VRE: excellent antibiotic activity
[4]
  antibiotic activity against MRSA: excellent antibiotic activity
Burkholderia cepacia
  antibiotic activity against Burkholderia cepacia: excellent antibiotic activity

## Teicoplanin
[1]; Average of the 11 VRE strains
  average MIC>90: 125 µg/mL
[1]; VRE1
  MIC>90: 250 µg/mL
[1]; VRE2
  MIC>90: 250 µg/mL
[1]; VRE3
  MIC>90: 62.5 µg/mL
[1]; VRE4
  MIC>90: 125 µg/mL
[1]; VRE5
  MIC>90: 125 µg/mL
[1]; VRE6
  MIC>90: 125 µg/mL
[1]; VRE7
  MIC>90: 125 µg/mL
[1]; VRE9
  MIC>90: 62.5 µg/mL
[1]; VRE10
  MIC>90: 62.5 µg/mL
[1]; VRE914
  MIC>90: 62.5 µg/mL
[1]; VRE915
  MIC>90: 125 µg/mL
[2]; Average of the 13 MRSA strains
  average MIC>90: 104.6 µg/mL
[2]; MRSA1
  MIC>90: 250 µg/mL
[2]; MRSA2
  MIC>90: 125 µg/mL
[2]; MRSA3
  MIC>90: 125 µg/mL
[2]; MRSA4
  MIC>90: 125 µg/mL
[2]; MRSA5
  MIC>90: 125 µg/mL
[2]; MRSA6
  MIC>90: 125 µg/mL
[2]; MRSA7
  MIC>90: 250 µg/mL
[2]; MRSA8
  MIC>90: 62.5 µg/mL
[2]; MRSA8*
  MIC>90: 31.25 µg/mL
[2]; MRSA9
  MIC>90: 15.63 µg/mL
[2]; MRSA10
  MIC>90: 31.25 µg/mL
[2]; MRSA11
  MIC>90: 31.25 µg/mL
[2]; MRSA11*
  MIC>90: 62.5 µg/mL

## CN[C@H](CC(C)C)C(=O)N[C@H]1C(=O)N[C@@H](CC(N)=O)C(=O)N[C@H]2C(=O)N[C@H]3C(=O)N[C@H](C(=O)N[C@H](C(=O)O)c4cc(O)cc(O)c4-c4cc3ccc4O)[C@H](O)c3ccc(c(Cl)c3)Oc3cc2cc(c3O[C@@H]2O[C@H](CO)[C@@H](O)[C@H](O)[C@H]2O[C@H]2C[C@](C)(N)[C@H](O)[C@H](C)O2)Oc2ccc(cc2Cl)[C@H]1O [Vancomycin]
VRE5
  inhibition of VRE5 on TSB agar medium: not inhibited
[1]; read-out: MIC>90, VRE1
  MIC: 500 µg/mL (≈ 345 µM)
[1]; read-out: MIC>90, VRE2
  MIC: 500 µg/mL (≈ 345 µM)
[1]; read-out: MIC>90, VRE3
  MIC: 125 µg/mL (≈ 86.3 µM)
[1]; read-out: MIC>90, VRE4
  MIC: 250 µg/mL (≈ 173 µM)
[1]; read-out: MIC>90, VRE5
  MIC: 250 µg/mL (≈ 173 µM)
[1]; read-out: MIC>90, VRE6
  MIC: 250 µg/mL (≈ 173 µM)
[1]; read-out: MIC>90, VRE7
  MIC: 250 µg/mL (≈ 173 µM)
[1]; read-out: MIC>90, VRE9
  MIC: 250 µg/mL (≈ 173 µM)
[1]; read-out: MIC>90, VRE10
  MIC: 125 µg/mL (≈ 86.3 µM)
[1]; read-out: MIC>90, VRE914
  MIC: 125 µg/mL (≈ 86.3 µM)
[1]; read-out: MIC>90, VRE915
  MIC: 250 µg/mL (≈ 173 µM)
[1]; read-out: average MIC>90, Average of the 11 VRE strains
  MIC: 261 µg/mL (≈ 180 µM)
[2]; read-out: MIC>90, MRSA1
  MIC: 250 µg/mL (≈ 173 µM)
[2]; read-out: MIC>90, MRSA2
  MIC: 125 µg/mL (≈ 86.3 µM)
[2]; read-out: MIC>90, MRSA3
  MIC: 125 µg/mL (≈ 86.3 µM)
[2]; read-out: MIC>90, MRSA4
  MIC: 125 µg/mL (≈ 86.3 µM)
[2]; read-out: MIC>90, MRSA5
  MIC: 125 µg/mL (≈ 86.3 µM)
[2]; read-out: MIC>90, MRSA6
  MIC: 250 µg/mL (≈ 173 µM)
[2]; read-out: MIC>90, MRSA7
  MIC: 250 µg/mL (≈ 173 µM)
[2]; read-out: MIC>90, MRSA8
  MIC: 125 µg/mL (≈ 86.3 µM)
[2]; read-out: MIC>90, MRSA8*
  MIC: 125 µg/mL (≈ 86.3 µM)
[2]; read-out: MIC>90, MRSA9
  MIC: 250 µg/mL (≈ 173 µM)
[2]; read-out: MIC>90, MRSA10
  MIC: 250 µg/mL (≈ 173 µM)
[2]; read-out: MIC>90, MRSA11
  MIC: 250 µg/mL (≈ 173 µM)
[2]; read-out: MIC>90, MRSA11*
  MIC: 31.2 µg/mL (≈ 21.6 µM)
[2]; read-out: average MIC>90, Average of the 13 MRSA strains
  MIC: 175 µg/mL (≈ 121 µM)
